Experimental data published in PubChem BioAssay (NCI).
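Method: 48-hour compound exposure of cells in 96-well plates, five concentrations, linear interpolation of endpoints. GI50 = concentration required for 50% inhibition of growth. At the TGI there is no net growth.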

What was measured:
Assay in all cases: DTP human tumour cell line panel, 48 h
[1] = test system: T-47D breast
[2] = test system: XF 498 CNS
[3] = test system: DMS 114 small cell lung
[4] = test system: DLD-1 colon
[5] = test system: LXFL 529 NSCLC
[6] = test system: KM20L2 colon
[7] = test system: HOP-18 NSCLC
[8] = test system: MDA-N

Which results are given for `C=CC(=O)N1CCN(c2ncnc3c(F)c(-c4c(O)cccc4F)c(Cl)cc23)CC1`?
GI50 [1]: 10.2 µM; TGI [1]: 42.9 µM

With `NCCN1CCN(c2nccc(-c3ccc4ccccc4c3)n2)CC1` as the molecule, how does the GI50 [1] read?
Its GI50 is 1.88 µM.

What about the TGI [1] of the same molecule?
The TGI was 4.59 µM.

For `CNC(=O)c1cn(C[C@H](F)CCc2ccc(NC(=O)Cc3cc(OC4CC(F)(F)C4)cc(C)n3)nn2)nn1`, which GI50 [1] is on record?
The GI50 was > 100 µM.

And the TGI [1]?
Its TGI is > 100 µM.

With `C=C(COC(C)=O)CC(/C=C(\C)CCC=C(C)C)OC(C)=O` (centres undefined) as the molecule, how does the TGI [2] read?
The TGI was > 100 µM.

And the TGI [3]?
The TGI was > 100 µM.

What about the TGI [4] of the same molecule?
Its TGI is > 100 µM.

And the TGI [5]?
Its TGI is > 100 µM.

What about the TGI [6] of the same molecule?
Its TGI is > 100 µM.

How did the TGI [7] turn out when `NS(=O)(=O)c1ccc(NC(=O)c2cccc3c(=O)c4ccccc4[nH]c23)cc1` was run?
Its TGI is > 100 µM.

And the TGI [2]?
Its TGI is > 100 µM.

What about the TGI [3] of the same molecule?
The TGI was > 100 µM.

What about the TGI [4] of the same molecule?
Its TGI is > 100 µM.

And the TGI [5]?
The TGI was > 100 µM.

What about the TGI [6] of the same molecule?
The TGI was > 100 µM.

How did the GI50 [1] turn out when `COc1cc(/C=C2\CC3C4CC=C5CC(N6CCCC6)CC[C@]5(C)C4CC[C@]3(C)C2OC(C)=O)ccc1OCCN1CCCC1` (some centres undefined) was run?
Its GI50 is 16.8 µM.

And the TGI [1]?
The TGI was 34.5 µM.

What does the source list for `CCCCCC(=O)Oc1ccc(/C(=C(\C)c2ccc(OC)cc2)c2ccc(OCCN3CCCCC3)cc2)cc1`?
GI50 [1]: 2 µM; TGI [1]: 16.5 µM

`Cc1c(-c2nc(N)nc(C3CC3)c2C)nc(N)nc1C1CC1` was tested. Which TGI [1] did it give?
Its TGI is > 100 µM.

And the TGI [8]?
Its TGI is > 100 µM.

With `CCN(CCO)CCNc1ccc(C)c2sc3cc(Cl)ccc3c(=O)c12` as the molecule, how does the GI50 [1] read?
Its GI50 is 1.91 µM.

What about the TGI [1] of the same molecule?
The TGI was 3.96 µM.

Which GI50 [1] does the source give for `Cc1ccc(C(=O)CC(Sc2cccc(Cl)c2Cl)c2ccc(Cl)cc2)cc1C` (centres undefined) here?
Its GI50 is 27.1 µM.

What about the TGI [1] of the same molecule?
The TGI was 76.9 µM.

Which GI50 [1] does the source give for `Cc1ccc(-c2nc(C(Cl)Cl)n3nc(-c4ccccc4)cc3n2)cc1` here?
The GI50 was 0.505 µM.

And the TGI [1]?
The TGI was 3.53 µM.

Which results are given for `Oc1c2c(c(O)c3ccccc13)=N[C@@H](c1ccccc1)[C@H](c1ccccc1)N=2`?
TGI [2]: > 100 µM; TGI [3]: > 100 µM; TGI [4]: > 100 µM; TGI [5]: > 100 µM

What does the source list for `COc1ccc2c(c1)[C@@]13CCN4CC5=CCO[C@H]6CC(=O)N2[C@H]1[C@H]6[C@H]5C[C@H]43`?
TGI [1]: > 100 µM; TGI [8]: > 100 µM

What does the source list for `Cc1c(C(=O)NN)nnn1-c1ccnc2c(C(F)(F)F)cccc12`?
GI50 [1]: > 100 µM; TGI [1]: > 100 µM

With `COc1ccc(C2C(C#N)=C(N)OC3=C2CCCc2ccc(F)cc23)cc1OC` (centres undefined) as the molecule, how does the GI50 [1] read?
The GI50 was 46.1 µM.

What about the TGI [1] of the same molecule?
Its TGI is 98.3 µM.

With `c1ccc2c(c1)N=C(c1cccc3ccccc13)CC(c1cccc3ccccc13)S2` (centres undefined) as the molecule, how does the TGI [7] read?
The TGI was 13.8 µM.

And the TGI [2]?
The TGI was 22.1 µM.

What about the TGI [3] of the same molecule?
Its TGI is 9.96 µM.

What about the TGI [4] of the same molecule?
The TGI was 16.2 µM.

And the TGI [5]?
Its TGI is 11.4 µM.

And the TGI [6]?
The TGI was 10.4 µM.

What does the source list for `COC(=O)NC/C=C\c1nc(CC/C=C\C(=O)OC2CC3CC(=O)O[C@@H](/C=C/CC(C)C)C[C@@H]4CCC(C)C(C[C@@H](OC)CC(C2)O3)O4)co1` (some centres undefined)?
GI50 [1]: 45.7 µM; TGI [1]: > 100 µM

With `COc1cc(-c2cn(C)c(=O)c(C)c2C)cc(OC)c1CN1CC[C@H](N2CCN(c3ccc(N[C@H]4CCC(=O)NC4=O)cc3F)CC2)C(F)(F)C1` as the molecule, how does the GI50 [1] read?
Its GI50 is 14.3 µM.

And the TGI [1]?
Its TGI is 49.3 µM.

How did the TGI [7] turn out when `CC(C)(C)c1nc2c(o1)C(=Nc1ccc(F)cc1)c1ccccc1C2=O` was run?
The TGI was 28.8 µM.

And the TGI [2]?
The TGI was 3.94 µM.

And the TGI [3]?
Its TGI is 7.81 µM.

And the TGI [4]?
The TGI was > 100 µM.

What about the TGI [1] of the same molecule?
Its TGI is > 100 µM.

And the TGI [5]?
Its TGI is > 100 µM.

And the TGI [6]?
The TGI was 32.5 µM.

And the TGI [8]?
Its TGI is 5.35 µM.

`NC(N)=N/N=C/c1c(-c2ccccn2)nc2sc(Cl)cn12` was tested. Which GI50 [1] did it give?
The GI50 was 8.58 µM.

And the TGI [1]?
Its TGI is 23.3 µM.

How did the TGI [1] turn out when `Nc1ccc(SC23CC4CC(CC(C4)C2)C3)cc1` was run?
The TGI was > 100 µM.

What does the source list for `COc1ccc(C(=O)C(C(=O)CCC(=O)Nc2cccc(C(F)(F)F)c2)c2ccccc2)cc1` (centres undefined)?
TGI [7]: > 100 µM; TGI [2]: > 100 µM; TGI [3]: > 100 µM; TGI [4]: > 100 µM; TGI [5]: > 100 µM; TGI [6]: > 100 µM

Which TGI [7] does the source give for `COc1ccc(C2=NC(C)(C)CO2)cc1` here?
The TGI was > 100 µM.

What about the TGI [2] of the same molecule?
Its TGI is > 100 µM.

What about the TGI [3] of the same molecule?
The TGI was > 100 µM.

And the TGI [4]?
Its TGI is > 100 µM.

And the TGI [6]?
The TGI was > 100 µM.

What does the source list for `CC(=O)n1c(-c2ccc(Cl)cc2)nc2c(c1=O)C(c1ccc(Cl)cc1)c1sc3c(Cl)cccc3c1O2` (centres undefined)?
GI50 [1]: 0.48 µM; TGI [1]: 2.78 µM

What does the source list for `COc1ccc(-c2cc(-c3cc(Cl)ccc3Cl)nc3nc(=S)[nH]c(N)c23)cc1`?
GI50 [1]: > 100 µM; TGI [1]: > 100 µM

What does the source list for `Oc1c(Br)cc(CN(Cc2cc(Br)c(O)c(Br)c2)C2CCCCC2)cc1Br`?
TGI [1]: > 100 µM; TGI [8]: > 100 µM

With `C=CCOc1c(Br)cc(Br)cc1Br` as the molecule, how does the GI50 [1] read?
Its GI50 is 31.4 µM.

What about the TGI [1] of the same molecule?
The TGI was > 100 µM.

`CNC(=O)c1cc(Oc2ccc(NC(=O)Nc3ccc(Cl)c(OC(F)(F)F)c3)c(F)c2)ccn1` was tested. Which GI50 [1] did it give?
The GI50 was 0.814 µM.

What about the TGI [1] of the same molecule?
Its TGI is 7.27 µM.

How did the GI50 [1] turn out when `Cc1noc(C)c1-c1ccc2[nH]c(=O)n3c2c1OC[C@@H]3c1ccccn1` was run?
The GI50 was 0.585 µM.

And the TGI [1]?
The TGI was > 100 µM.

`C[C@H]1CCC/C=C/[C@@H]2C[C@H](N)C[C@H]2[C@H](O)/C=C/C(=O)O1` was tested. Which GI50 [1] did it give?
Its GI50 is > 100 µM.

And the TGI [1]?
The TGI was > 100 µM.

And the GI50 [8]?
The GI50 was > 100 µM.

What about the TGI [8] of the same molecule?
Its TGI is > 100 µM.

With `COc1ccc(NC2=C(Br)C(=O)C(C)=C(C)C2=O)cc1` as the molecule, how does the GI50 [1] read?
Its GI50 is 1.93 µM.

What about the TGI [1] of the same molecule?
Its TGI is 4.81 µM.
